Structures can show the parent of a compound that is named as a salt.

In the assay the target is NMDA receptor. The assay is described as follows: NMDA receptor binding assay using [3H]CPP as antagonist ligand. To be noted: in vitro, essentially as Murphy et al, J. Pharm. Exp. Ther. 240:778 (1987). An excerpt: The activity of the compounds of the formula I is shown in vitro in an NMDA receptor binding assay based on the use of [^3 H]CPP as antagonist ligand in a manner essentially as set out by B. E. Murphy, et al, in J. Pharm. Exp. Ther. 240:778 (1987).
The molecule `NC(C(=O)O)c1ccc(CC(=O)O)cc1` (racemic) [Example I1, 1,4-Benzenediacetic acid, α-amino-, (±)] gave an IC50 of under 100 µM.

Turning to `NC(C(=O)O)c1ccc(CC(=O)O)c(O)c1` (racemic) [Example I3, 1,4-Benzenediaoetic acid, α-amino-2-hydroxy-,-monohydrochloride, (±)], the IC50 is under 100 µM. `NC(C(=O)O)c1ccc(O)c(CC(=O)O)c1` (stereo not drawn) [Example I2, α-Amino-4-hydroxy-1,3-benzenediacetic acid] returned an IC50 of under 100 µM.

Source of the values: patent US5238958A, “Substituted α-amino acids having selected acidic moieties for use as excitatory amino acid antagonists in pharmaceuticals” (Warner-Lambert Company, priority 1990, dated 1993).
